Results as given in the NIST ThermoML archive (doi:10.1016/j.jct.2012.06.030).

Experiment: excess molar enthalpy (molar enthalpy of mixing); xn = mol fraction of the nth substance listed
Conditions: 101 kPa, Liquid, isothermal titration calorimeter

CCCCCC[n+]1ccc2ccccc2c1.N#C[S-] [2-hexylisoquinolinium thiocyanate] + O
Conditions	excess molar enthalpy [kcal/mol]
303.15 K, x1 = 0.2511	0.0803
303.15 K, x1 = 0.2663	0.0805
303.15 K, x1 = 0.2835	0.0772
303.15 K, x1 = 0.3031	0.071
303.15 K, x1 = 0.3255	0.0609
303.15 K, x1 = 0.3483	0.048
303.15 K, x1 = 0.3744	0.032
303.15 K, x1 = 0.4001	0.0169
303.15 K, x1 = 0.4295	0.000844
303.15 K, x1 = 0.4576	-0.0129
303.15 K, x1 = 0.4895	-0.0268
303.15 K, x1 = 0.5184	-0.0375
303.15 K, x1 = 0.5509	-0.0473
303.15 K, x1 = 0.578	-0.054
303.15 K, x1 = 0.6079	-0.0595
303.15 K, x1 = 0.641	-0.0638
303.15 K, x1 = 0.6779	-0.066
303.15 K, x1 = 0.7193	-0.0655
303.15 K, x1 = 0.7496	-0.0636
303.15 K, x1 = 0.7826	-0.0598
303.15 K, x1 = 0.8185	-0.054
303.15 K, x1 = 0.858	-0.0464
303.15 K, x1 = 0.872	-0.0421
303.15 K, x1 = 0.8864	-0.037
303.15 K, x1 = 0.9014	-0.0318
303.15 K, x1 = 0.9168	-0.027
303.15 K, x1 = 0.9328	-0.0221
303.15 K, x1 = 0.9494	-0.0165
303.15 K, x1 = 0.9666	-0.0104
303.15 K, x1 = 0.9844	-0.00416
308.15 K, x1 = 0.0931	0.0332
308.15 K, x1 = 0.0953	0.0339
308.15 K, x1 = 0.0976	0.0347
308.15 K, x1 = 0.1	0.0355
308.15 K, x1 = 0.1025	0.0363
308.15 K, x1 = 0.1052	0.0372
308.15 K, x1 = 0.1081	0.0381
308.15 K, x1 = 0.111	0.0391
308.15 K, x1 = 0.1142	0.0401
308.15 K, x1 = 0.1175	0.0412
308.15 K, x1 = 0.1211	0.0423
308.15 K, x1 = 0.1248	0.0436
308.15 K, x1 = 0.1284	0.0447
308.15 K, x1 = 0.1321	0.0459
308.15 K, x1 = 0.1361	0.0473
308.15 K, x1 = 0.1403	0.0486
308.15 K, x1 = 0.1448	0.0501
308.15 K, x1 = 0.1496	0.0516
308.15 K, x1 = 0.1547	0.0533
308.15 K, x1 = 0.1602	0.0551
308.15 K, x1 = 0.166	0.057
308.15 K, x1 = 0.1723	0.0589
308.15 K, x1 = 0.1792	0.0612
308.15 K, x1 = 0.1865	0.0636
308.15 K, x1 = 0.1945	0.0661
308.15 K, x1 = 0.2033	0.069
308.15 K, x1 = 0.2128	0.0718
308.15 K, x1 = 0.2233	0.0744
308.15 K, x1 = 0.2349	0.076
308.15 K, x1 = 0.2478	0.0778
308.15 K, x1 = 0.2621	0.0795
308.15 K, x1 = 0.2782	0.0785
308.15 K, x1 = 0.2941	0.0754
308.15 K, x1 = 0.3119	0.0706
308.15 K, x1 = 0.332	0.063
308.15 K, x1 = 0.3549	0.0511
308.15 K, x1 = 0.3772	0.0372
308.15 K, x1 = 0.4025	0.0214
308.15 K, x1 = 0.4262	0.00743
308.15 K, x1 = 0.4529	-0.00703
308.15 K, x1 = 0.4767	-0.0189
308.15 K, x1 = 0.5032	-0.0306
308.15 K, x1 = 0.5328	-0.0421
308.15 K, x1 = 0.5573	-0.05
308.15 K, x1 = 0.5841	-0.0571
308.15 K, x1 = 0.6137	-0.0629
308.15 K, x1 = 0.6464	-0.0672
308.15 K, x1 = 0.6827	-0.0693
308.15 K, x1 = 0.7091	-0.0693
308.15 K, x1 = 0.7376	-0.0674
308.15 K, x1 = 0.7685	-0.0641
308.15 K, x1 = 0.802	-0.059
308.15 K, x1 = 0.8213	-0.0557
308.15 K, x1 = 0.8416	-0.0519
308.15 K, x1 = 0.8628	-0.0471
308.15 K, x1 = 0.883	-0.0418
308.15 K, x1 = 0.9042	-0.0356
308.15 K, x1 = 0.9264	-0.0289
308.15 K, x1 = 0.9497	-0.0213
308.15 K, x1 = 0.9742	-0.0116
